Read-outs that look alike come from different tables or passages of the source.
Key:
[1] = Analgesic effect in the mouse hot plate and tail clip tests; format: in vivo
Protocol: (§1) The assessment of the analgesic effect of the instant compounds was conducted in the mouse hot plate and tail clip tests.
A mouse (adult male weighing 18-25 grams) is placed in a restraining cylinder on a hot plate with the temperature controlled at 55° ± 0.3° C. The reaction time of the mouse to lick a foot or jump is measured at 60, 40 and 20 minutes before and 30, 60, 90 and 120 minutes after administration of the test compound. The "normal" reaction time is measured as the median of the three pretreatment reaction times. A positive response consists of a reaction time greater than twice the normal time at any of the post treatment times. A dose of the test compound is considered active when 50 percent or more of the animals used show a positive response.
A special clip is applied to the base of the tail of the mouse (adult male weighing 18-25 grams) and the time for the animal to turn around to bite as it is measured. The sensitivity of each mouse is determined one-half hour prior to drug administration. Only those mice attempting to bite the clip are included in the experiment. The test compound is then administered intragastrically and the response to placement of the clip is determined at 30, 60, 90 and 120 minutes after treatment. A response is considered positive if the animal takes more than 2 times the pre-drug time to bite at the clip at any of these time intervals. […]

[2] = Castor oil induced diarrhea in the rat; format: in vivo, rat (adult Charles River male); details: for Potency (relative to diphenoxylate hydrochloride): oral, diphenoxylate = 1.0
Protocol: CASTOR OIL INDUCED DIARRHEA IN THE RAT
Adult Charles River male rats were fasted in community cages for 24 hours prior to the test, with free access to water. The compound was administered intragastrically (suspended on 0.5% methylcellulose) one hour prior to the administration of castor oil at the dose of 1.0 ml/rat intragastrically. The rats were then observed for the presence or absence of diarrhea, at hourly intervals for up to 8 hours past administration of castor oil. The median effective dose values at each hourly interval were calculated for the compound using the method of Berkson (1953). […] For example:
Comparative Oral Antidiarrheal Potency and Duration of 1-(3,3,3-triphenylpropyl)-4-phenyl-4-piperidinemethanol hydrochloride (a) to Diphenoxylate hydrochloride in the Rat Castor Oil Diarrhea Test

[3] = Mouse tail clip test (analgesia); format: in vivo; details: at 100 and 30 mpk
Protocol: as §1
A special clip is applied to the base of the tail of the mouse (adult male weighing 18-25 grams) and the time for the animal to turn around to bite as it is measured. The sensitivity of each mouse is determined one-half hour prior to drug administration. Only those mice attempting to bite the clip are included in the experiment. The test compound is then administered intragastrically and the response to placement of the clip is determined at 30, 60, 90 and 120 minutes after treatment. A response is considered positive if the animal takes more than 2 times the pre-drug time to bite at the clip at any of these time intervals. A test compound is considered active when 50 percent or more of the animals used show a positive response.

[4] = Rat2, oral (intragastric), rat, 2 hours after castor oil, read-out: ED50
[5] = oral (intragastric), rat, 3 hours after castor oil, read-out: ED50
[6] = oral (intragastric), rat, 4 hours after castor oil, read-out: ED50
[7] = oral (intragastric), rat, 5 hours after castor oil, read-out: ED50
[8] = oral (intragastric), rat, 6 hours after castor oil, read-out: ED50
[9] = oral (intragastric), rat, 7 hours after castor oil, read-out: ED50
[10] = oral (intragastric), rat, 8 hours after castor oil, read-out: ED50

Structure (SMILES)	ED50 [2, 4] [mg/kg]	ED50 [2, 5] [mg/kg]	ED50 [2, 6] [mg/kg]	ED50 [2, 7] [mg/kg]	ED50 [2, 8] [mg/kg]	ED50 [2, 9] [mg/kg]	ED50 [2, 10] [mg/kg]	also measured
OCC1(c2ccccc2)CCN(CCC(c2ccccc2)(c2ccccc2)c2ccccc2)CC1 [1-(3,3,3-triphenylpropyl)-4-phenyl-4-piperidinemethanol]								analgesic effect [1]: very little analgesic effect; ability to inhibit gastrointestinal motility ([2]; intragastric, rat): very active
Cl.OCC1(c2ccccc2)CCN(CCC(c2ccccc2)(c2ccccc2)c2ccccc2)CC1 [(a), 1-(3,3,3-triphenylpropyl)-4-phenyl-4-piperidinemethanol hydrochloride]	0.14	0.18	0.24	0.28	0.28	0.28	0.35	Potency (relative to diphenoxylate hydrochloride) ([2]; rat, 2 hours after castor oil): 1.35; Potency (relative to diphenoxylate hydrochloride) ([2]; rat, 3 hours after castor oil): 2.25; Potency (relative to diphenoxylate hydrochloride) ([2]; rat, 4 hours after castor oil): 3.25; Potency (relative to diphenoxylate hydrochloride) ([2]; rat, 5 hours after castor oil): 4.33; Potency (relative to diphenoxylate hydrochloride) ([2]; rat, 6 hours after castor oil): 5.71; Potency (relative to diphenoxylate hydrochloride) ([2]; rat, 7 hours after castor oil): 6.44; Potency (relative to diphenoxylate hydrochloride) ([2]; rat, 8 hours after castor oil): 5.42
CCOC(=O)C1(c2ccccc2)CCN(CCC(C#N)(c2ccccc2)c2ccccc2)CC1 [Diphenoxylate, reference compound]	0.22	0.36	0.71	1.21	1.62	1.85	1.93	
CCOC(=O)C1(c2ccccc2)CCN(CCC(c2ccccc2)(c2ccccc2)c2ccccn2)CC1 [ethyl 1-[3,3-diphenyl-3-(2-pyridyl)propyl]-4-phenyl-4-piperidinecarboxylate]								analgesia (mouse tail clip test) [3]: weak analgesia; ED50 ([2]; Rattus norvegicus, po, 2 h, read-out: ED50 2 hrs. post castor oil): 0.04 mg/kg

From US4072686A, “1-(3,3,3-Triarylalkyl)-4-phenyl-piperidinealkanols” (G. D. Searle & Co., priority 1976, dated 1978)
